# Earlier results as cited in US11406619B2, “Injectable formulations” (priority 2020, dated 2022).
# Details: according to the Human Metabolome Database; cited from earlier work
structure (smiles),measurement,value
"CN(C)CCc1c[nH]c2ccccc12 [Formulation D0, N,N-dimethyltryptamine]",degradation in solution,degrades relatively quickly in solution
